Converted amounts (≈) assume the structure as drawn.
Experiments:
S. aureus Mu50 = test: microbe, parasite or virus in culture; type: cell-based, Staphylococcus aureus; settings: Staphylococcus aureus, MU50, read-out: MIC Mu50, Example 8, Table 17
Outline: (§1)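 Overnight TSB cultures at 37 °C adjusted to A578 0.3, diluted 500-fold in CAMHB and mixed 1:1 with compound in CAMHB; static overnight incubation at 37 °C. MIC reported in mg/L; Mu50 NR-1 also tested in some runs.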

[1] = test system: S. aureus FDA209P (ATCC 6538P); test: microbe, parasite or virus in culture; type: cell-based, Staphylococcus aureus; settings: Staphylococcus aureus; Example 8, Table 17; read-out: MIC FDA209P
Outline: as §1

GyrA(S84L) + GyrB(wt) = biological target: T1, GyrA(S84L) + GyrB(wt) (Staphylococcus aureus, UniProt P20831, S84L); test: DNA cleavage assay with mutant GyrA(S84L) and GyrB(wt); type: biochemical; settings: IC50 (μg/mL) GyrA(S84L) + GyrB(wt), Example 9, Table 18
T1 construct: made in house; host or cells: E. coli BL21(DE3)
From the text: (§2) E. coliBL21(DE3) (produced by Invitrogen) was transformed with pMAL-c2-gyrA mentioned above, with pMAL-c2-gyrB mentioned above, or with pMAL-c2-SAGAmut84 containing a mutant gyrA encoding the amino acid sequence of GyrA(wt) in which serine residue at the 84th position from the amino terminus is substituted with a leucine residue (see, Hiramatsu K., Igarashi M., Morimoto Y, Baba T., Umekita M., Akamatsu Y., Int. J. Antimicrob. Agents, 2012 June; 39(6), 478-85). To the culture medium of the resulting transformed Escherichia coli, 1 mM […] (produced by Wako Pure Chemical Industries) was added to induce expression of maltose-binding GyrA(wt), maltose-binding GyrB(wt), or maltose-binding mutant GyrA(S84L), and the bacterium was cultured overnight at 25° C. After completion of the culture, the cells were collected, and suspended in a buffer (20 mM Tris-HCl (pH 8.0), 200 mM sodium chloride, 1 mM ethylenediaminetetraacetic acid (EDTA), 1 mM dithiothreitol (DTT)), a protein extracting reagent (10× BugBuster (registered trademark), produced by Novagen) in a volume of 1/10 of the volume of the buffer, and 2.5 μL/10 mL of the buffer of Benzonase (registered trademark) nuclease (produced by Novagen) were added, the mixture was left standing at 25° C. for 30 minutes, and the cells were disrupted and lysed to obtain a disrupted cell suspension containing the maltose-binding GyrA(wt), maltose-binding GyrB(wt), or maltose-binding mutant GyrA(S84L).
(§3) Then, each disrupted cell suspension mentioned above was added to a column filled with an amylose resin covalently bound with maltose (produced by Novagen). A buffer (20 mM Tris-HCl (pH 8.0), 200 mM sodium chloride, 1 mM EDTA) containing 10 mM maltose was added to the column to elute the maltose-binding GyrA(wt), maltose-binding GyrB(wt), and maltose-binding mutant GyrA(S84L).
(§4) To each eluate, 4 units/1 mL of the eluate of protease (Factor Xa, produced by Amersham) was added, and the mixture was left standing at 25° C. for 3 hours and 30 minutes to cleave the maltose-binding proteins, GyrA(wt), GyrB(wt), and mutant GyrA(S84L) from the maltose-binding GyrA(wt), maltose-binding GyrB(wt), and maltose-binding mutant GyrA(S84L).
(§5) Then, GyrA(wt), GyrB(wt), and mutant GyrA(S84L) were concentrated by using an ultrafiltration unit (YM-50 Filter Unit, produced by Millipore).
(§6) The concentrated GyrA(wt), GyrB(wt), and mutant GyrA(S84L) were each suspended in a buffer (35 mM Tris-HCl (pH 7.5), 24 mM potassium chloride, 6 mM magnesium chloride, 1.8 mM spermidine, 0.36 mg/mL bovine serum albumin, 5 mM DTT, 50 volume % glycerol) at a concentration of 1 μg/μL for GyrA(wt), 2 μg/μL for GyrB(wt), or 1 μg/μL for mutant GyrA(S84L).
An assay was performed in the same manner as that of the cleavage of the plasmid DNA with GyrA(wt) and GyrB(wt) mentioned above, provided that 0.15 μL of an enzyme solution of mutant GyrA(S84L) and 0.2 μL of the enzyme solution of GyrB(wt) were added instead of […] of the enzyme solution of GyrA(wt) and 0.2 μL of the enzyme solution of GyrB(wt). In FIGS. 3 and 4, the symbols “S”, “L”, and “N” have the same meanings as those explained for FIGS. 1 and 2.
IC50 value of levofloxacin or apigenin was also calculated from the visualized images shown in FIGS. 3 and 4 in the same manner as that used for the calculation using the results shown in FIGS. 1 and 2.
The DNA cleavage assay was performed with M-246 in the same manner as that used in Example 4.

GyrA(wt) + GyrB(wt) = biological target: T2, GyrA(wt) + GyrB(wt) (Staphylococcus aureus, UniProt P20831); test: DNA cleavage assay with GyrA(wt) and GyrB(wt); type: biochemical; settings: for Ratio of cleaved DNA (%) / Ratio of substrate plasmid DNA (%): Table 18
T2 construct: made in house; host or cells: E. coli BL21(DE3)
From the text: The gene sequence encoding the wild-type GyrA of Staphylococcus aureus (henceforth also referred to as “GyrA(wt)”) shown as SEQ ID NO: 1 was cloned into the plasmid pMAL-c2 (produced by New England Biolabs) (the resultant is henceforth also referred to as “pMAL-c2-gyrA”).
The gene sequence encoding the wild-type GyrB of Staphylococcus aureus (henceforth also referred to as “GyrB(wt)”) shown as SEQ ID NO: 2 was cloned into the plasmid pMAL-c2 (produced by New England Biolabs) (the resultant is henceforth also referred to as “pMAL-c2-gyrB”).
as §2, §3, §4, §5, §6
A substrate plasmid DNA, pTWV228 (0.4 μg, produced by Takara Bio), and levofloxacin (LVFX) or apigenin were added to a buffer (35 mM Tris-HCl (pH 7.5), 24 mM potassium chloride, 6 mM magnesium chloride, 1.8 mM spermidine, 0.36 mg/mL bovine serum albumin, 5 mM DTT), and 0.15 μL of the enzyme solution of GyrA(wt) and […] of the enzyme solution of GyrB(wt) were added to the mixture to prepare a reaction mixture in a total volume of 20
Levofloxacin was added at a final concentration of 0, 0.5, 1, 2, 4, 8, 16, or 32 μg/mL.
The aforementioned reaction solution was left standing at 25° C. for 30 minutes to allow the reaction. […]

SMILES: COc1ccc2c(=O)cc(-c3ccc(O)c(OC)c3)oc2c1 [M-246]
- MIC (S. aureus Mu50): 4 µg/mL (≈ 13.4 µM)
- MIC [1]: 128 µg/mL (≈ 429 µM)
- IC50 (GyrA(S84L) + GyrB(wt)): 3.35 µM
- Ratio of cleaved DNA (%) (GyrA(wt) + GyrB(wt); 0.5 μg/mL): 18%
- Ratio of substrate plasmid DNA (%) (GyrA(wt) + GyrB(wt); 0.5 μg/mL): 82%
- Ratio of cleaved DNA (%) (GyrA(wt) + GyrB(wt); 1 μg/mL): 23%
- Ratio of substrate plasmid DNA (%) (GyrA(wt) + GyrB(wt); 1 μg/mL): 77%
- Ratio of cleaved DNA (%) (GyrA(wt) + GyrB(wt); 2 μg/mL): 29%
- Ratio of substrate plasmid DNA (%) (GyrA(wt) + GyrB(wt); 2 μg/mL): 71%
- Ratio of cleaved DNA (%) (GyrA(wt) + GyrB(wt); 4 μg/mL): 40%
- Ratio of substrate plasmid DNA (%) (GyrA(wt) + GyrB(wt); 4 μg/mL): 60%
- Ratio of cleaved DNA (%) (GyrA(wt) + GyrB(wt); 8 μg/mL): 47%
- Ratio of substrate plasmid DNA (%) (GyrA(wt) + GyrB(wt); 8 μg/mL): 53%
- Ratio of cleaved DNA (%) (GyrA(wt) + GyrB(wt); 16 μg/mL): 56%
- Ratio of substrate plasmid DNA (%) (GyrA(wt) + GyrB(wt); 16 μg/mL): 44%
- Ratio of cleaved DNA (%) (GyrA(wt) + GyrB(wt); 32 μg/mL): 67%
- Ratio of substrate plasmid DNA (%) (GyrA(wt) + GyrB(wt); 32 μg/mL): 33%
- IC50 (GyrA(wt) + GyrB(wt); IC50 (μg/mL) GyrA(wt) + GyrB(wt), Example 9, Table 18): 53.6 µM
